According to patent US10099993B2, “Metabotropic glutamate receptor positive allosteric modulators (PAMS) and uses thereof” (Sanford-Burnham Medical Research Institute, priority 2014, dated 2018):

Experiments:
mGlu3 = mGlu3 (Rattus norvegicus (Rat), UniProt P31422); assay: mGlu3 GIRK thallium flux assay; settings: for EC50: read-out: mGlu3 PAM EC50, PAM mode, test compound, then EC20 glutamate […] later in the presence of thallium, mean ± SEM; for Emax: read-out: mGlu3 PAM Max;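 on all read-outs here: kinetic fluorescence slope read shortly after thallium plus agonist addition, scaled between vehicle and maximal agonist control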
Chain of mGlu3 (P31422 23-879): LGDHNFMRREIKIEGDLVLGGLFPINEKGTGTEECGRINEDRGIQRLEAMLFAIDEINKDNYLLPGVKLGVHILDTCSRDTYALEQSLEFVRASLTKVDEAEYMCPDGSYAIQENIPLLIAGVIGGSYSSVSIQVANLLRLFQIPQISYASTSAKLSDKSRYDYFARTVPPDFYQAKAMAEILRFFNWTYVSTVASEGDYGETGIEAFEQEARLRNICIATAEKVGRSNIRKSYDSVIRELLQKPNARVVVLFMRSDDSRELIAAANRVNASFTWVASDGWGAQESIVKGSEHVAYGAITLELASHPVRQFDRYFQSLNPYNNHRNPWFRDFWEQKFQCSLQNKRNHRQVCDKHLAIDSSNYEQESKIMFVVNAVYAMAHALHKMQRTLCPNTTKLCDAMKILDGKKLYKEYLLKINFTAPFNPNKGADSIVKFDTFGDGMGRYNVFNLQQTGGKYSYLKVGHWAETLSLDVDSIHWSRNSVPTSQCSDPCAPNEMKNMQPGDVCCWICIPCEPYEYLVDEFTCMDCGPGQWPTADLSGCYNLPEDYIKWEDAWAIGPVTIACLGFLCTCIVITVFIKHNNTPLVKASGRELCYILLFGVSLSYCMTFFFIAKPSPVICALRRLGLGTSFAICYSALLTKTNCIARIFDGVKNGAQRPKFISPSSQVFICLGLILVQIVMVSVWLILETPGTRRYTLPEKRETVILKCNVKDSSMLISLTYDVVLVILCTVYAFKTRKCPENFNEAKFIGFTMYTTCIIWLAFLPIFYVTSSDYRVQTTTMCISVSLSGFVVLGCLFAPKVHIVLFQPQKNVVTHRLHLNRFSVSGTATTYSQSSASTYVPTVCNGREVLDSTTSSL

mGlu2 = mGlu2 (Rattus norvegicus (Rat), UniProt P31421); assay: mGlu2 GIRK thallium flux assay; settings: for Emax: read-out: mGlu2 PAM Max; for EC50: read-out: mGlu2 PAM EC50, PAM mode, test compound, then EC20 glutamate […] later in the presence of thallium, mean ± SEM, at least three experiments;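 on all read-outs here: Cell-based assay, rate of fluorescence rise right after thallium plus agonist addition read on a kinetic imaging plate reader, normalized to vehicle and maximal agonist control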
Chain of mGlu2 (P31421 19-872): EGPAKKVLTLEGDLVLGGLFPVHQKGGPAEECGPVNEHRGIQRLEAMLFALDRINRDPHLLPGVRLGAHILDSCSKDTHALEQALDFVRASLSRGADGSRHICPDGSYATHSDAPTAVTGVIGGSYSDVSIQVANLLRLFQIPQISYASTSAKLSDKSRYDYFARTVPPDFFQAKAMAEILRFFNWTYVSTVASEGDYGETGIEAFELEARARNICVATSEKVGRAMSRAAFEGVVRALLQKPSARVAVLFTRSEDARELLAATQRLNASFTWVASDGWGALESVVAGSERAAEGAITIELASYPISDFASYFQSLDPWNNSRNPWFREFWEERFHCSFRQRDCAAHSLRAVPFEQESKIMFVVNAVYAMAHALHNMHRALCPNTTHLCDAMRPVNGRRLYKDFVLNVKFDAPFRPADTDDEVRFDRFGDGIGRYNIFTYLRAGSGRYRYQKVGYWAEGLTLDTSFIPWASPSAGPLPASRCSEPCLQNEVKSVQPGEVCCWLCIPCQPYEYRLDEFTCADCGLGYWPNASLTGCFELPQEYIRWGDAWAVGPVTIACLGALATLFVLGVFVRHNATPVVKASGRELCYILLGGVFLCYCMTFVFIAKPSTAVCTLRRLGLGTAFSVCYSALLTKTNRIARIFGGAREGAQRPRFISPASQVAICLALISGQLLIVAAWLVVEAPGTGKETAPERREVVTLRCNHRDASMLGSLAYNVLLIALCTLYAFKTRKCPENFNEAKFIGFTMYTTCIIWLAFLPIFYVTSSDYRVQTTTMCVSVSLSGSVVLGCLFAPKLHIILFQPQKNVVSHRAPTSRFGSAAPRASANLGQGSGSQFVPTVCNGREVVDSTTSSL

Cc1cc(C(=O)O)ccc1OCCCCOc1ccc(C(=O)C(C)C)c(O)c1C [compound 66, 4-(4-(3-Hydroxy-4-isobutyryl-2-methylphenoxy)butoxy)-3-methylbenzoic acid]
EC50 (mGlu3): > 30 µM

Cc1c(OCc2cccc(-c3cccc(-c4nn[nH]n4)c3)c2)ccc(C(=O)CC(C)(C)C)c1O [compound 152, 1-(4-((3′-(2H-Tetrazol-5-yl)-[1,1′-biphenyl]-3-yl)methoxy)-2-hydroxy-3-methylphenyl)-3,3-dimethylbutan-1-one]
Emax (mGlu2): 103 ± 1.8%
Emax (mGlu3): 98.9 ± 3.7%

COc1ccc(C(=O)NC2CCCC2)cc1OCCCCOc1ccc(C(=O)CC(C)(C)C)c(O)c1C [compound 112, N-Cyclopentyl-3-(4-(4-(3,3-dimethylbutanoyl)-3-hydroxy-2-methylphenoxy)butoxy)-4-methoxybenzamide]
EC50 (mGlu2): > 10000 nM
Emax (mGlu2): 35 ± 5.8%
EC50 (mGlu3): > 30 µM
Emax (mGlu3): 40.3 ± 1.6%

Cc1c(OCc2cccc(-c3cccc(CC(=O)O)c3)c2)ccc(C(=O)CC(C)(C)C)c1O [compound 145, 2-(3′-((4-(3,3-dimethylbutanoyl)-3-hydroxy-2-methylphenoxy)methyl)-[1,1′-biphenyl]-3-yl)acetic acid]
EC50 (mGlu2): 1360 ± 259 nM
Emax (mGlu2): 93.4 ± 11.4%
EC50 (mGlu3): 3.94 ± 1.32 µM
Emax (mGlu3): 79.1 ± 15%

Cc1c(OCc2cccc(-c3ccc(F)c(C(=O)O)c3)c2)ccc(C(=O)CC(C)(C)C)c1O [compound 135, 3′-((4-(3,3-Dimethylbutanoyl)-3-hydroxy-2-methylphenoxy)methyl)-4-fluoro-[1,1′-biphenyl]-3-carboxylic acid]
EC50 (mGlu2): 208 ± 20 nM
Emax (mGlu2): 88.5 ± 3.8%
EC50 (mGlu3): 0.587 ± 0.129 µM
Emax (mGlu3): 74.4 ± 5%

Cc1c(OCCCCOc2ccc(CCC(=O)O)c(O)c2)ccc(C(=O)CC(C)C)c1C [compound 111]
EC50 (mGlu2): > 10000 nM
EC50 (mGlu3): > 30 µM

Cc1c(OCCCCOc2ccc(C(=O)C(C)C)c(O)c2C)cccc1C(=O)O [compound 64, 3-(4-(3-Hydroxy-4-isobutyryl-2-methylphenoxy)butoxy)-2-methylbenzoic acid]
EC50 (mGlu3): > 30 µM

COc1ccc(-c2nnn[nH]2)cc1OCCCCOc1ccc(C(=O)CC(C)(C)C)c(O)c1C [compound 92, 1-(2-Hydroxy-4-(4-(2-methoxy-5-(1H-tetrazol-5-yl)phenoxy)butoxy)-3-methylphenyl)-3,3-dimethylbutan-1-one]
Emax (mGlu2): 91.2 ± 1.1%
Emax (mGlu3): 96.7 ± 4%

Cc1c(OCc2cccc(-c3ccc(C(=O)O)c(Cl)c3)c2)ccc(C(=O)CC(C)(C)C)c1O [compound 141, 3-Chloro-3′-((4-(3,3-dimethylbutanoyl)-3-hydroxy-2-methylphenoxy)methyl)-[1,1′-biphenyl]-4-carboxylic acid]
EC50 (mGlu2): 391 ± 103 nM
Emax (mGlu2): 67 ± 6.4%
EC50 (mGlu3): 0.656 ± 0.265 µM
Emax (mGlu3): 54.9 ± 9.7%

COc1ccc(C(=O)N2CCNCC2)cc1OCCCCOc1ccc(C(=O)CC(C)(C)C)c(O)c1C [compound 105, 1-(2-Hydroxy-4-(4-(2-methoxy-5-(piperazine-1-carbonyl)phenoxy)butoxy)-3-methylphenyl)-3,3-dimethylbutan-1-one]
EC50 (mGlu2): > 10000 nM
Emax (mGlu2): 67.4 ± 1.9%
EC50 (mGlu3): > 10 µM
Emax (mGlu3): 49.7 ± 3.9%

Cc1c(OCc2cccc(-c3cnccc3C(=O)O)c2)ccc(C(=O)CC(C)(C)C)c1O [Compound 180, 3-(3-((4-(3,3-Dimethylbutanoyl)-3-hydroxy-2-methylphenoxy)methyl)phenyl)isonicotinic acid]
EC50 (mGlu2): 1460 ± 20 nM
Emax (mGlu2): 88.4 ± 1.5%
EC50 (mGlu3): > 30 µM
Emax (mGlu3): 30.6 ± 9.2%

Cc1c(OCc2cnc(-c3cccc(C(=O)O)c3)cn2)ccc(C(=O)CC(C)(C)C)c1O [compound 163, 3-(5-((4-(3,3-Dimethylbutanoyl)-3-hydroxy-2-methylphenoxy)methyl)pyrazin-2-yl)benzoic acid]
EC50 (mGlu2): 1450 ± 15 nM
Emax (mGlu2): 105 ± 1.6%
EC50 (mGlu3): 0.268 ± 0.005 µM
Emax (mGlu3): 113 ± 5.4%

COc1ccc(C(=O)NS(=O)(=O)c2ccccc2)cc1OCCCCOc1ccc(C(=O)CC(C)(C)C)c(O)c1C [compound 113, 3-(4-(4-(3,3-Dimethylbutanoyl)-3-hydroxy-2-methylphenoxy)butoxy)-4-methoxy-N-(phenylsulfonyl)benzamide]
EC50 (mGlu2): 872 ± 4 nM
Emax (mGlu2): 102 ± 2.9%
EC50 (mGlu3): 1.08 ± 0.021 µM
Emax (mGlu3): 109 ± 3.5%

Cc1c(OCc2cccc(-c3cccc(C(=O)O)c3)c2)ccc(C(=O)CC2CCCC2)c1O [compound 129, 3′-((4-(2-Cyclopentylacetyl)-3-hydroxy-2-methylphenoxy)methyl)-[1,1′-biphenyl]-3-carboxylic acid]
EC50 (mGlu2): 616 ± 217 nM
Emax (mGlu2): 97.5 ± 9%
EC50 (mGlu3): 3.56 ± 1.94 µM
Emax (mGlu3): 94 ± 10.1%

COc1cc(C(=O)NO)ccc1OCCCCOc1ccc(C(=O)CC(C)(C)C)c(O)c1C [compound 88, 4-(4-(4-(3,3-Dimethylbutanoyl)-3-hydroxy-2-methylphenoxy)butoxy)-N-hydroxy-3-methoxybenzamide]
EC50 (mGlu2): 2420 ± 278 nM
Emax (mGlu2): 86.4 ± 2.6%
EC50 (mGlu3): 5.46 ± 0.184 µM
Emax (mGlu3): 53.5 ± 10.6%

Cc1c(OCCCCOc2ccccn2)ccc(C(=O)CC(C)C)c1O [Compound 185]
EC50 (mGlu2): 2790 ± 102 nM
Emax (mGlu2): 66.3 ± 0.6%
EC50 (mGlu3): > 30 µM
Emax (mGlu3): 22.4 ± 4.3%

COc1cc(C(=O)O)ccc1OCCCCOc1ccc(C(=O)C(C)C)c(O)c1C [Compound 62, 4-(4-(3-Hydroxy-4-isobutyryl-2-methylphenoxy)butoxy)-3-methoxybenzoic acid]
EC50 (mGlu3): > 30 µM

COc1ccc(C(=O)Nc2ccccc2)cc1OCCCCOc1ccc(C(=O)CC(C)(C)C)c(O)c1C [compound 104, 3-(4-(4-(3,3-Dimethylbutanoyl)-3-hydroxy-2-methylphenoxy)butoxy)-4-methoxy-N-phenylbenzamide]
Emax (mGlu2): 23.1 ± 1.4%
Emax (mGlu3): 27 ± 3.4%

Cc1c(OCc2cccc(COc3ccc(C#N)cc3)c2)ccc(C(=O)CC2CCCC2)c1C [compound 154]
EC50 (mGlu2): > 30000 nM
EC50 (mGlu3): > 30 µM

COC(=O)c1ccc(OCc2cccc(COc3ccc(C(=O)CC4CCCC4)c(C)c3C)c2)cc1 [compound 155]
EC50 (mGlu2): > 30000 nM
EC50 (mGlu3): > 30 µM

Cc1c(OCCCCSc2ccncc2)ccc(C(=O)CC(C)C)c1C [Compound 189]
EC50 (mGlu2): > 30000 nM
EC50 (mGlu3): > 30 µM

Cc1c(OCCCCOc2ccc(F)c(C(=O)O)c2)ccc(C(=O)CC(C)C)c1C [Compound 34, 5-(4-(2,3-Dimethyl-4-(3-methylbutanoyl)phenoxy)butoxy)-2-fluorobenzoic acid]
EC50 (mGlu2): > 30000 nM
EC50 (mGlu3): > 30 µM

COc1ccc(C#N)cc1OCCCCOc1ccc(C(=O)CC(C)(C)C)c(O)c1C [compound 91, 3-(4-(4-(3,3-Dimethylbutanoyl)-3-hydroxy-2-methylphenoxy)butoxy)-4-methoxybenzonitrile]
EC50 (mGlu2): > 10000 nM
Emax (mGlu2): 48.2 ± 7.4%
EC50 (mGlu3): > 30 µM
Emax (mGlu3): 33.7 ± 7.4%

COc1ccc(C(=O)O)cc1-c1cncc(COc2ccc(C(=O)CC(C)(C)C)c(O)c2C)c1 [compound 160, 3-(5-((4-(3,3-Dimethylbutanoyl)-3-hydroxy-2-methylphenoxy)methyl)pyridin-3-yl)-4-methoxybenzoic acid]
Emax (mGlu3): 110 ± 2.4%

CC(=O)c1ccc(OCCCCOc2cccc(C(=O)O)c2C)c(C)c1O [Compound 54, 3-(4-(4-Acetyl-3-hydroxy-2-methylphenoxy)butoxy)-2-methylbenzoic acid]
EC50 (mGlu3): > 30 µM

CC(=O)c1ccc(OCCCCOc2ccc(C(=O)O)cc2C)c(C)c1O [Compound 56, 4-(4-(4-Acetyl-3-hydroxy-2-methylphenoxy)butoxy)-3-methylbenzoic acid]
EC50 (mGlu3): > 30 µM

CC(=O)c1ccc(OCCCCOc2ccc(F)c(C(=O)O)c2)c(C)c1O [Compound 55, 5-(4-(4-Acetyl-3-hydroxy-2-methylphenoxy)butoxy)-2-fluorobenzoic acid]
EC50 (mGlu3): > 30 µM

Cc1c(OCCCCOc2ccccc2C(=O)O)ccc(C(=O)CC2CCCC2)c1C [Compound 27, 2-(4-(4-(2-Cyclopentylacetyl)-2,3-dimethylphenoxy)butoxy)benzoic acid]
EC50 (mGlu3): > 30 µM

Cc1c(OCCCCOc2ccc(C(=O)O)c(Cl)c2)ccc(C(=O)CC(C)C)c1C [Compound 30, 2-Chloro-4-(4-(2,3-dimethyl-4-(3-methylbutanoyl)phenoxy)butoxy)benzoic acid]
EC50 (mGlu3): > 30 µM

COc1ccc(C(=O)O)cc1OCCCCOc1ccc(C(C)=O)c(O)c1C [Compound 53, 3-(4-(4-Acetyl-3-hydroxy-2-methylphenoxy)butoxy)-4-methoxybenzoic acid]
EC50 (mGlu3): > 30 µM

CCC(=O)c1ccc(OCCCCOc2ccc(C(=O)O)cc2OC)c(C)c1O [Compound 57, 4-(4-(3-Hydroxy-2-methyl-4-propionylphenoxy)butoxy)-3-methoxybenzoic acid]
EC50 (mGlu3): > 30 µM

CCC(=O)c1ccc(OCCCCOc2cccc(C(=O)O)c2C)c(C)c1O [Compound 59, 3-(4-(3-Hydroxy-2-methyl-4-propionylphenoxy)butoxy)-2-methylbenzoic acid]
EC50 (mGlu3): > 30 µM

COc1cc(C(=O)O)ccc1OCCCCOc1ccc(C(C)=O)c(O)c1C [Compound 52, 4-(4-(4-Acetyl-3-hydroxy-2-methylphenoxy)butoxy)-3-methoxybenzoic acid]
EC50 (mGlu3): > 30 µM

Cc1c(OCCCCOc2ccc(CCC(=O)O)c(O)c2)ccc(C(=O)CC(C)C)c1O [Compound 5, reference compound]
EC50 (mGlu3): > 30 µM

CCC(=O)c1ccc(OCCCCOc2ccc(C(=O)O)cc2C)c(C)c1O [Compound 61, 4-(4-(3-Hydroxy-2-methyl-4-propionylphenoxy)butoxy)-3-methylbenzoic acid]
EC50 (mGlu3): > 30 µM

Cc1c(OCCCCOc2ccccc2C(=O)O)ccc(C(=O)CC(C)C)c1O [Compound 28, 2-(4-(3-Hydroxy-2-methyl-4-(3-methylbutanoyl)phenoxy)butoxy)benzoic acid]
EC50 (mGlu3): > 30 µM

Cc1c(OCCCCOc2ccccc2C(=O)O)ccc(C(=O)CC2CCCC2)c1O [Compound 29, 2-(4-(4-(2-Cyclopentylacetyl)-3-hydroxy-2-methylphenoxy)butoxy)benzoic acid]
EC50 (mGlu3): > 30 µM
